Experimental data taken from patent publication US10752589B2, “Trigonelline based compounds” (SPHAERA PHARMA PVT. LTD., priority 2016, dated 2020).
Values after ≈ are worked out from the molar mass of the structure shown. “Also recorded” adds a separate entry of the source. Like-named read-outs stand apart in the source and are kept apart here. Values belong to the compound of their own block, whether it stands above or below them.

What was measured:
[1] = Solubility in miliQ water by HPLC (area under the curve); type: physicochemical
Experimental: 1 mg/ml and 2 mg/ml solution of Mefloquine and Tadlafil respectively and equivalent weight of respective trigonelline modified compound (1011), compound (1005) of the present invention was taken in miliQ water, vortexed, centrifuged for 3 min, filtered and loaded on HPLC column (Zorbax Eclipse C18; Mobile Phase: A: 0.1% TFA, B: ACN; run time 15 min, Waters 2996 HPLC model).

[2] = Pharmacokinetics in SD rats, IV dosing (Paclitaxel and 1001)
Experimental: Pharmacokinetics studies were carried out to evaluate the plasma exposure of modified drug of Paclitaxel in SD rats when dosed intravenously (IV). The results were compared with exposure of Paclitaxel using the same dosing vehicle. The dosing vehicle that was used in this study was PEG400 and Normal saline in fixed composition. […] 3 mpk and 1 mpk IV dosing was done for the modified drug and 3 mpk IV for Paclitaxel parent drug. After IV dosing of the modified drug blood was collected by serial bleeding at different time points in heparinized tubes. Blood samples were centrifuged at 10,000 rpm for 5 min at 4° C. to obtain the plasma, which were aspirated into separate labeled tubes and stored at −80° C. Extraction solvent was added to plasma, was vortexed and shaken on shaker for 10 minutes, centrifuged at 10,000 rpm for 10 minutes at 4° C. Supernatant was kept for analysis.
Acetonitrile and plasma calibration curves were generated and percentage of drug recovery from plasma determined Quantitative analysis was done by liquid chromatography tandem mass spectrometer (API3000 LC-MS/MS).

[3] = Stability and solubility in dosing vehicle PEG400 and Normal saline; type: physicochemical; details: PEG400 and Normal saline in fixed composition
[4] = Solubility of Paclitaxel modified drug in saline solvent systems by HPLC; details: for Fold increase in solubility: versus Paclitaxel; for Solubility compared with parent drug: aqueous solubility; for solubility: thermodynamic from solid
Experimental: Solubility was checked in different solvent systems.
Area under the curve for each were determined and based on that fold increase in solubility was determined.

[5] = Pharmacokinetics in SD rats, IV dosing (Docetaxel and 1008); type: in vivo; details: for AUC / Cmax / Tmax / half-life: Sprague-Dawley, rat, plasma, PEG400 and Normal saline; for half-life: read-out: T1/2 elimination (converted)
Excerpt: The results were compared with exposure of Docetaxel (10 mpk) using the same dosing vehicle.
Supernatant was kept for analysis.

[6] = concentration used for HPLC analysis 1 mg/ml
[7] = 3 mg/Kg iv, PEG/Normal Saline (3 mpk 1001 = 2.1 mpk Paclitaxel delivered)
[8] = concentration used for HPLC analysis 2 mg/ml

SMILES: CC(=O)O[C@H]1C(=O)C2(C)C([C@H](OC(=O)c3ccccc3)[C@]3(O)C[C@H](OC(=O)[C@H](OC(=O)c4ccc[n+](C)c4)[C@H](NC(=O)c4ccccc4)c4ccccc4)C(C)=C1C3(C)C)[C@]1(OC(C)=O)CO[C@@H]1C[C@@H]2O.[I-] (stereo partly drawn) [Compound 1001, 3-((((1R,2R)-1-benzamido-3-(((2aR,4S,6R,9S,11S,12S,12bS)-6,12b-diacetoxy-12-(benzoyloxy)-4,11-dihydroxy-4a,8,13,13-tetramethyl-5-oxo-2a,3,4,4a,5,6,9,10,11,12,12a,12b-dodecahydro-1H-7,11-methanocyclodeca[3,4]benzo[1,2-b]oxet-9-yl)oxy)-3-oxo-1-phenylpropan-2-yl)oxy)carbonyl)-1-methylpyridin-1-ium iodide]
Cmax ([2]; 1 mg/Kg iv, PEG/Normal Saline (1 mpk 1001 = 0.71 mpk Paclitaxel delivered)): 2384 nm | Cmax [2, 7]: 8620 nm | Fold increase in the AUC ([2]; iv, versus Paclitaxel): more than 10 fold | Fold increase in the Cmax ([2]; iv, versus Paclitaxel): more than 80 folds | Stability and solubility in the dosing vehicle [3]: stable and soluble | Fold increase in solubility ([4]; Normal Saline with 5% Dimethylacetamide): > 10,000 × | Fold increase in solubility ([4]; Normal Saline with 5% Dimethylsulfoxide): > 12,000 × | Fold increase in solubility ([4]; Normal Saline with 9% N-Methylpyrrolidone): > 15,000 × | Fold increase in solubility ([4]; Normal Saline): > 5000 × | Solubility compared with parent drug [4]: increased solubility; also recorded: better aqueous solubility | solubility ([4]; aqueous with cosolvent or surfactant or cyclodextrin, Solubility in 5% DMA in normal saline, 5% DMA in normal saline): ~1000 µg/mL | solubility ([4]; aqueous with cosolvent or surfactant or cyclodextrin, Solubility in 5% DMSO in Normal saline, 5% DMSO in Normal saline): > 1200 µg/mL | solubility ([4]; aqueous with cosolvent or surfactant or cyclodextrin, Solubility in 9% NP in Normal Saline, 9% NP in Normal Saline): > 1500 µg/mL | solubility ([4]; saline or isotonic, Solubility in Normal saline, Normal saline): > 500 µg/mL | Stability in the selected solvents ([4]; selected solvent systems in normal saline): stable

SMILES: CC(=O)O[C@@]12CO[C@@H]1C[C@H](O)[C@@]1(C)C(=O)[C@H](O)C3=C(C)[C@@H](OC(=O)[C@H](OC(=O)c4ccc[n+](C)c4)[C@@H](NC(=O)OC(C)(C)C)c4ccccc4)C[C@@](O)([C@@H](OC(=O)c4ccccc4)[C@H]21)C3(C)C.[I-] [Compound 1008, 3-((((2R,3S)-1-(((2aR,4S,4aS,6R,9S,11S,12S,12aR,12bS)-12b-acetoxy-12-(benzoyloxy)-4,6,11-trihydroxy-4a,8,13,13-tetramethyl-5-oxo-2a,3,4,4a,5,6,9,10,11,12,12a,12b-dodecahydro-1H-7,11-methanocyclodeca[3,4]benzo[1,2-b]oxet-9-yl)oxy)-3-((tert-butoxycarbonyl)amino)-1-oxo-3-phenylpropan-2-yl)oxy)carbonyl)-1-methylpyridin-1-ium iodide]
Stability and solubility in the dosing vehicle [3]: stable and soluble | Solubility compared with parent drug [4]: better aqueous solubility | Exposure compared to the parent drug ([5]; IV, 1008 3 mpk versus Docetaxel 10 mpk): significantly higher exposure | Pharmacokinetics compared to the original compound ([5]; IV, versus Docetaxel): enhanced pharmacokinetics | AUC ([5]; 3 mg/kg, 3 mpk IV): 1.04 µM·h | Cmax ([5]; 3 mg/kg, 3 mpk IV): 6.92 µM | Tmax ([5]; 3 mg/kg, 3 mpk IV): 4.8 min | half-life ([5]; 3 mg/kg, 3 mpk IV): 107 min

SMILES: CC(=O)O[C@@]12CO[C@@H]1C[C@H](O)[C@@]1(C)C(=O)[C@H](O)C3=C(C)[C@@H](OC(=O)[C@H](O)[C@@H](NC(=O)OC(C)(C)C)c4ccccc4)C[C@@](O)([C@@H](OC(=O)c4ccccc4)[C@H]21)C3(C)C [Docetaxel, reference compound]
AUC ([5]; 10 mg/kg, 10 mpk IV): 0.897 µM·h | Cmax ([5]; 10 mg/kg, 10 mpk IV): 0.495 µM | Tmax ([5]; 10 mg/kg, 10 mpk IV): 4.8 min | half-life ([5]; 10 mg/kg, 10 mpk IV): 124 min

SMILES: C[n+]1cccc(C(=O)N2CCCC[C@@H]2[C@@H](O)c2cc(C(F)(F)F)nc3c(C(F)(F)F)cccc23)c1 [Compound 1011, 3-((R)-2((S)-(2,8-bis(trifluoromethyl)quinolin-4 yl)(hydroxy)methyl)piperidine-1-carbonyl)-1-methylpyridin-1-ium]
Aqueous solubility over parent drug [1]: significant increase | Fold increase in solubility for equiv. wt of DM using HPLC ([1]; 1 mg/ml, versus parent Mefloquine): 2.4 fold | solubility [1, 6]: Completely

SMILES: CN1CC(=O)N2[C@H](c3ccc4c(c3)OCO4)c3c(c4ccccc4n3C(=O)c3ccc[n+](C)c3)C[C@@H]2C1=O [Compound 1005, 3-((6R,12aR)-6-(benzo[d][1,3]dioxol-5-yl)-2-methyl-1,4-dioxo-1,2,3,4,6,7,12,12a-octahydropyrazino[1′,2′:1,6]pyrido[3,4-b]indole-7-carbonyl)-1-methylpyridin-1-ium iodide]
Aqueous solubility over parent drug [1]: significant increase | Fold increase in solubility for equiv. wt of DM using HPLC ([1]; 2 mg/ml, versus parent Tadalafil): 80 fold | solubility [1, 8]: Completely

Further lines, results first:

solubility [1, 6]: Poor
SMILES: OC(c1cc(C(F)(F)F)nc2c(C(F)(F)F)cccc12)C1CCCCN1 (stereo not shown) [Mefloquine, reference compound]

solubility [1, 8]: Very poor
SMILES: CN1CC(=O)N2[C@H](c3ccc4c(c3)OCO4)c3[nH]c4ccccc4c3C[C@@H]2C1=O [Tadalafil, reference compound]

Cmax [2, 7]: 104 nm | Solubility in 5% DMA in normal saline ([4]; 5% DMA in normal saline): Not soluble | Solubility in 5% DMSO in Normal saline ([4]; 5% DMSO in Normal saline): Not soluble | Solubility in 9% NP in Normal Saline ([4]; 9% NP in Normal Saline): Not soluble | solubility ([4]; normal saline, saline or isotonic, Solubility in Normal saline): 0.1 µg/mL (≈ 0.117 µM)
SMILES: CC(=O)O[C@H]1C(=O)[C@@]2(C)[C@H]([C@H](OC(=O)c3ccccc3)[C@]3(O)C[C@H](OC(=O)[C@H](O)[C@@H](NC(=O)c4ccccc4)c4ccccc4)C(C)=C1C3(C)C)[C@]1(OC(C)=O)CO[C@@H]1C[C@@H]2O [Paclitaxel, reference compound]
